In ChEMBL document CHEMBL5375952, “Discovery of Novel 8-Hydroxyquinoline Derivatives with Potent In Vitro and In Vivo Antifungal Activity” (J Med Chem, 2023):
Converted amounts (≈) assume the structure as drawn.

Columns and labels:
[1] = system: Cryptococcus neoformans; assay: Antifungal activity against Cryptococcus neoformans HN17 assessed as fungal growth inhibition incubated for 48 hrs by broth microdilution method; assay type: functional
[2] = system: Nakaseomyces glabratus; assay: Antifungal activity against Candida glabrata 201 assessed as fungal growth inhibition incubated for 48 hrs by broth microdilution method; assay type: functional
[3] = system: Cryptococcus neoformans; assay: Antifungal activity against Cryptococcus neoformans HN19 assessed as fungal growth inhibition incubated for 48 hrs by broth microdilution method; assay type: functional
[4] = system: Cryptococcus neoformans; assay: Antifungal activity against Cryptococcus neoformans 444 assessed as fungal growth inhibition incubated for 48 hrs by broth microdilution method; assay type: functional
[5] = system: Pichia kudriavzevii; assay: Antifungal activity against Candida krusei 472 assessed as fungal growth inhibition incubated for 48 hrs by broth microdilution method; assay type: functional
[6] = system: Pichia kudriavzevii; assay: Antifungal activity against Candida krusei 68 assessed as fungal growth inhibition incubated for 48 hrs by broth microdilution method; assay type: functional
[7] = system: Cryptococcus neoformans; assay: Antifungal activity against Cryptococcus neoformans HN2-40 assessed as fungal growth inhibition incubated for 48 hrs by broth microdilution method; assay type: functional
[8] = system: Candida albicans; assay: Antifungal activity against Candida albicans 337 assessed as fungal growth inhibition incubated for 48 hrs by broth microdilution method; assay type: functional
[9] = system: Candida albicans; assay: Antifungal activity against Candida albicans 338 assessed as fungal growth inhibition incubated for 48 hrs by broth microdilution method; assay type: functional
[10] = system: Cryptococcus neoformans; assay: Antifungal activity against Cryptococcus neoformans 443 assessed as fungal growth inhibition incubated for 48 hrs by broth microdilution method; assay type: functional
[11] = system: Cryptococcus neoformans; assay: Antifungal activity against Cryptococcus neoformans 56992 assessed as fungal growth inhibition incubated for 48 hrs by broth microdilution method; assay type: functional
[12] = system: Aspergillus fumigatus; assay: Antifungal activity against Aspergillus fumigatus A assessed as fungal growth inhibition incubated for 48 hrs by broth microdilution method; assay type: functional
[13] = system: [Candida] auris; assay: Antifungal activity against Candida auris 277 assessed as fungal growth inhibition incubated for 48 hrs by broth microdilution method; assay type: functional; conditions: Candidozyma auris
[14] = system: Candida albicans; assay: Antifungal activity against Candida albicans 21 assessed as fungal growth inhibition incubated for 48 hrs by broth microdilution method; assay type: functional
[15] = system: Cryptococcus neoformans; assay: Antifungal activity against Cryptococcus neoformans HN1 assessed as fungal growth inhibition incubated for 48 hrs by broth microdilution method; assay type: functional
[16] = system: Candida parapsilosis; assay: Antifungal activity against Candida parapsilosis 106 assessed as fungal growth inhibition incubated for 48 hrs by broth microdilution method; assay type: functional; conditions: Lodderomyces parapsilosis
[17] = Antifungal activity against Cryptococcus gattii SCZ20024 assessed as fungal growth inhibition incubated for 48 hrs by broth microdilution method; assay type: functional, Cryptococcus gattii VGI
[18] = system: Cryptococcus neoformans; assay: Antifungal activity against Cryptococcus neoformans HN15 assessed as fungal growth inhibition incubated for 48 hrs by broth microdilution method; assay type: functional
[19] = system: Candida albicans; assay: Antifungal activity against Candida albicans 25 assessed as fungal growth inhibition incubated for 48 hrs by broth microdilution method; assay type: functional
[20] = Antifungal activity against Cryptococcus gattii WM178 assessed as fungal growth inhibition incubated for 48 hrs by broth microdilution method; assay type: functional, Cryptococcus gattii VGI
[21] = system: Candida tropicalis; assay: Antifungal activity against Candida tropicalis 172 assessed as fungal growth inhibition incubated for 48 hrs by broth microdilution method; assay type: functional
[22] = system: Candida albicans; assay: Antifungal activity against Candida albicans 22 assessed as fungal growth inhibition incubated for 48 hrs by broth microdilution method; assay type: functional
[23] = system: Candida parapsilosis; assay: Antifungal activity against Candida parapsilosis ATCC22019 assessed as fungal growth inhibition incubated for 48 hrs by broth microdilution method; assay type: functional; conditions: Lodderomyces parapsilosis
[24] = system: Cryptococcus neoformans; assay: Antifungal activity against Cryptococcus neoformans BJ3 assessed as fungal growth inhibition incubated for 48 hrs by broth microdilution method; assay type: functional
[25] = system: Cryptococcus neoformans; assay: Antifungal activity against Cryptococcus neoformans HN20 assessed as fungal growth inhibition incubated for 48 hrs by broth microdilution method; assay type: functional
[26] = system: Pichia kudriavzevii; assay: Antifungal activity against Candida krusei 471 assessed as fungal growth inhibition incubated for 48 hrs by broth microdilution method; assay type: functional
[27] = system: Candida tropicalis; assay: Antifungal activity against Candida tropicalis 184 assessed as fungal growth inhibition incubated for 48 hrs by broth microdilution method; assay type: functional
[28] = system: [Candida] auris; assay: Antifungal activity against Candida auris 278 assessed as fungal growth inhibition incubated for 48 hrs by broth microdilution method; assay type: functional; conditions: Candidozyma auris
[29] = system: Candida albicans; assay: Antifungal activity against Candida albicans SC5314 assessed as fungal growth inhibition incubated for 48 hrs by broth microdilution method; assay type: functional
[30] = system: Nakaseomyces glabratus; assay: Antifungal activity against Candida glabrata 222 assessed as fungal growth inhibition incubated for 48 hrs by broth microdilution method; assay type: functional
[31] = Antifungal activity against Cryptococcus gattii WM179 assessed as fungal growth inhibition incubated for 48 hrs by broth microdilution method; assay type: functional, Cryptococcus gattii VGI
[32] = system: [Candida] auris; assay: Antifungal activity against Candida auris 887 assessed as fungal growth inhibition incubated for 48 hrs by broth microdilution method; assay type: functional; conditions: Candidozyma auris
[33] = system: Nakaseomyces glabratus; assay: Antifungal activity against Candida glabrata 202 assessed as fungal growth inhibition incubated for 48 hrs by broth microdilution method; assay type: functional
[34] = Antifungal activity against Cryptococcus gattii SCZ20031 assessed as fungal growth inhibition incubated for 48 hrs by broth microdilution method; assay type: functional, Cryptococcus gattii VGI
[35] = system: Aspergillus fumigatus; assay: Antifungal activity against Aspergillus fumigatus 7544 assessed as fungal growth inhibition incubated for 48 hrs by broth microdilution method; assay type: functional
[36] = system: Candida tropicalis; assay: Antifungal activity against Candida tropicalis 176 assessed as fungal growth inhibition incubated for 48 hrs by broth microdilution method; assay type: functional
[37] = system: Candida parapsilosis; assay: Antifungal activity against Candida parapsilosis 104 assessed as fungal growth inhibition incubated for 48 hrs by broth microdilution method; assay type: functional; conditions: Lodderomyces parapsilosis
[38] = system: Cryptococcus neoformans; assay: Antifungal activity against Cryptococcus neoformans SH68 assessed as fungal growth inhibition incubated for 48 hrs by broth microdilution method; assay type: functional
[39] = system: [Candida] auris; assay: Antifungal activity against Candida auris CBS 12372 assessed as fungal growth inhibition incubated for 48 hrs by broth microdilution method; assay type: functional; conditions: Candidozyma auris
[40] = system: Pichia kudriavzevii; assay: Antifungal activity against Candida krusei 474 assessed as fungal growth inhibition incubated for 48 hrs by broth microdilution method; assay type: functional
[41] = system: Cryptococcus neoformans; assay: Antifungal activity against Cryptococcus neoformans H99 assessed as fungal growth inhibition incubated for 48 hrs by broth microdilution method; assay type: functional
[42] = system: Nakaseomyces glabratus; assay: Antifungal activity against Candida glabrata 204 assessed as fungal growth inhibition incubated for 48 hrs by broth microdilution method; assay type: functional
[43] = system: Candida tropicalis; assay: Antifungal activity against Candida tropicalis 178 assessed as fungal growth inhibition incubated for 48 hrs by broth microdilution method; assay type: functional
[44] = system: Candida tropicalis; assay: Antifungal activity against Candida tropicalis 182 assessed as fungal growth inhibition incubated for 48 hrs by broth microdilution method; assay type: functional
[45] = system: [Candida] auris; assay: Antifungal activity against Candida auris 276 assessed as fungal growth inhibition incubated for 48 hrs by broth microdilution method; assay type: functional; conditions: Candidozyma auris
[46] = system: Cryptococcus neoformans; assay: Antifungal activity against Cryptococcus neoformans 445 assessed as fungal growth inhibition incubated for 48 hrs by broth microdilution method; assay type: functional
[47] = Antifungal activity against Cryptococcus gattii E566 assessed as fungal growth inhibition incubated for 48 hrs by broth microdilution method; assay type: functional, Cryptococcus gattii VGI
[48] = system: Candida parapsilosis; assay: Antifungal activity against Candida parapsilosis 125 assessed as fungal growth inhibition incubated for 48 hrs by broth microdilution method; assay type: functional; conditions: Lodderomyces parapsilosis
[49] = system: Cryptococcus neoformans; assay: Antifungal activity against Cryptococcus neoformans HN2 assessed as fungal growth inhibition incubated for 48 hrs by broth microdilution method; assay type: functional
[50] = system: Pichia kudriavzevii; assay: Antifungal activity against Candida krusei 477 assessed as fungal growth inhibition incubated for 48 hrs by broth microdilution method; assay type: functional
[51] = system: Nakaseomyces glabratus; assay: Antifungal activity against Candida glabrata 205 assessed as fungal growth inhibition incubated for 48 hrs by broth microdilution method; assay type: functional
[52] = system: Candida parapsilosis; assay: Antifungal activity against Candida parapsilosis 105 assessed as fungal growth inhibition incubated for 48 hrs by broth microdilution method; assay type: functional; conditions: Lodderomyces parapsilosis
[53] = system: Aspergillus fumigatus; assay: Antifungal activity against Aspergillus fumigatus 023-12 assessed as fungal growth inhibition incubated for 48 hrs by broth microdilution method; assay type: functional

## OC(Cn1cncn1)(Cn1cncn1)c1ccc(F)cc1F [FLUCONAZOLE]
[1]
  MIC: 16 µg/mL (≈ 52.2 µM)
[2]
  MIC: 1 µg/mL (≈ 3.27 µM)
[3]
  MIC: 8 µg/mL (≈ 26.1 µM)
[4]
  MIC: 8 µg/mL (≈ 26.1 µM)
[5]
  MIC: > 64 µg/mL
[6]
  MIC: 0.25 µg/mL (≈ 0.816 µM)
[7]
  MIC: 8 µg/mL (≈ 26.1 µM)
[8]
  MIC: 0.25 µg/mL (≈ 0.816 µM)
[9]
  MIC: 0.5 µg/mL (≈ 1.63 µM)
[10]
  MIC: 8 µg/mL (≈ 26.1 µM)
[11]
  MIC: 4 µg/mL (≈ 13.1 µM)
[12]
  MIC: > 64 µg/mL
[13]
  MIC: 4 µg/mL (≈ 13.1 µM)
[14]
  MIC: 0.5 µg/mL (≈ 1.63 µM)
[15]
  MIC: 4 µg/mL (≈ 13.1 µM)
[16]
  MIC: 0.5 µg/mL (≈ 1.63 µM)
[17]
  MIC: 4 µg/mL (≈ 13.1 µM)
[18]
  MIC: 4 µg/mL (≈ 13.1 µM)
[19]
  MIC: 0.5 µg/mL (≈ 1.63 µM)
[20]
  MIC: 4 µg/mL (≈ 13.1 µM)
[21]
  MIC: 0.125 µg/mL (≈ 0.408 µM)
[22]
  MIC: 0.5 µg/mL (≈ 1.63 µM)
[23]
  MIC: 0.5 µg/mL (≈ 1.63 µM)
[24]
  MIC: 16 µg/mL (≈ 52.2 µM)
[25]
  MIC: 2 µg/mL (≈ 6.53 µM)
[26]
  MIC: > 64 µg/mL
[27]
  MIC: 2 µg/mL (≈ 6.53 µM)
[28]
  MIC: > 64 µg/mL
[29]
  MIC: 0.5 µg/mL (≈ 1.63 µM)
[30]
  MIC: 1 µg/mL (≈ 3.27 µM)
[31]
  MIC: 4 µg/mL (≈ 13.1 µM)
[32]
  MIC: > 64 µg/mL
[33]
  MIC: 1 µg/mL (≈ 3.27 µM)
[34]
  MIC: 4 µg/mL (≈ 13.1 µM)
[35]
  MIC: > 64 µg/mL
[36]
  MIC: 2 µg/mL (≈ 6.53 µM)
[37]
  MIC: 0.5 µg/mL (≈ 1.63 µM)
[38]
  MIC: 8 µg/mL (≈ 26.1 µM)
[39]
  MIC: > 64 µg/mL
[40]
  MIC: > 64 µg/mL
[41]
  MIC: 8 µg/mL (≈ 26.1 µM)
[42]
  MIC: 1 µg/mL (≈ 3.27 µM)
[43]
  MIC: 2 µg/mL (≈ 6.53 µM)
[44]
  MIC: 0.125 µg/mL (≈ 0.408 µM)
[45]
  MIC: 2 µg/mL (≈ 6.53 µM)
[46]
  MIC: 8 µg/mL (≈ 26.1 µM)
[47]
  MIC: 2 µg/mL (≈ 6.53 µM)
[48]
  MIC: > 64 µg/mL
[49]
  MIC: 4 µg/mL (≈ 13.1 µM)
[50]
  MIC: 0.25 µg/mL (≈ 0.816 µM)
[51]
  MIC: 1 µg/mL (≈ 3.27 µM)
[52]
  MIC: > 64 µg/mL
[53]
  MIC: > 64 µg/mL
